Experiments:
Format in all cases: cell-based
AGTR1 [1] = biological target: T1, AGTR1 (Homo sapiens, UniProt P30556); experiment: DiscoveRx β-arrestin2 recruitment assay (enzyme complementation, Pathunter CHO-K1 AGTR1 β-arrestin cell line); settings: DiscoveRx β-arrestin2 recruitment; for DiscoveRx β-arrestin2 Ymax (%): maximal response
T1 construct: host or cells: Pathunter CHO-K1 AGTR1 β-arrestin cell line (CHO-K1)
T1 sequence (P30556 1-359): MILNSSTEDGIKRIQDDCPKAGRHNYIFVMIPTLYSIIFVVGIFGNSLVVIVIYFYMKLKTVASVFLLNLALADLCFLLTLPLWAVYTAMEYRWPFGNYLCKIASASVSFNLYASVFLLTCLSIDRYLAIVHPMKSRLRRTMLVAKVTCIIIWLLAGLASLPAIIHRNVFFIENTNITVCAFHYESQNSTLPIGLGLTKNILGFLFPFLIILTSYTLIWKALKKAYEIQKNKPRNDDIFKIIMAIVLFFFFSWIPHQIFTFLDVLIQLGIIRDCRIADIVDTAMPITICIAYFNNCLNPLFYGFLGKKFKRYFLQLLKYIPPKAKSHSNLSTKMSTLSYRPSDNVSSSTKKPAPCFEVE
Method in brief: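 CHO-K1 cells expressing AGTR1 with β-arrestin2 enzyme-complementation reporter, plated 14-16 h ahead in 1% serum medium, then exposed to compounds for 90 min at 37° C. Chemiluminescence read after 1 h detection. EC50 (agonist) or IC50 (antagonist) from 4-parameter logistic fit; activity as percentage of All maximal effect.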

hAT1R = biological target: T2, hAT1R (Homo sapiens, UniProt P30556); experiment: BRET β-arrestin2 biosensor assay, higher receptor expression (hAT1R 5 ng/well), HEK293 cells; settings: for EC50: High AT1R Expression
T2 sequence (P30556 1-359): T1 sequence (P30556 1-359)

AGTR1 [2] = biological target: T1, AGTR1; experiment: DiscoveRx IP1 accumulation assay (HTRF), agonist mode, Pathunter CHO-K1 AGTR1 β-arrestin cell line; settings: for EC50: read-out: IP-1 EC50
Method in brief: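 Agonist mode in CHO-K1 AGTR1 β-arrestin cells plated 14-16 h before; compounds at varying concentrations for 90 min at 37° C, IP1 accumulation read by HTRF (D2-conjugate and anti-IP1 cryptate, 20 min room temperature). EC50 from 4-parameter logistic fit; activity given as percentage of maximal AII effect.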

| Structure (SMILES) | EC50 (AGTR1 [1]) [nM] | DiscoveRx β-arrestin2 Ymax (%) (AGTR1 [1]) | BRET β-Arrestin2 High AT1R Expression Ymax (%) (hAT1R) | EC50 (hAT1R) [nM] | IP-1 Ymax (%) (AGTR1 [2]) | EC50 (AGTR1 [2]) [nM] |
| --- | --- | --- | --- | --- | --- | --- |
| CCc1nc2c(C)cc(C)nc2n1Cc1ccc(-c2cc(N3CCCC(C)(C)C3)ccc2-c2nn[nH]n2)cc1 [Example 98, 3-((5′-(3,3-dimethylpiperidin-1-yl)-2′-(2H-tetrazol-5-yl)-[1,1′-biphenyl]-4-yl)methyl)-2-ethyl-5,7-dimethyl-3H-imidazo[4,5-b]pyridine] | 18.8 | 72.9 | 86.6 | 20.3 | 6.6 | 26.7 |
| CCCCC1=NC2(CCCC2)C(=O)N1Cc1ccc(-c2cc(Nc3ccccc3)ccc2-c2nn[nH]n2)cc1 [Example 99, 2-butyl-3-((5′-(phenylamino)-2′-(2H-tetrazol-5-yl)-[1,1′-biphenyl]-4-yl)methyl)-1,3-diazaspiro[4.4]non-1-en-4-one] | 32.4 | 6.3 | 9.6 | 144 |  | > 100000 |
| CCCCC1=NC2(CCCC2)C(=O)N1Cc1ccc(-c2cc(N3CCC(C)CC3)ccc2-c2nn[nH]n2)cc1 [Example 100] | 28.8 | 12.7 | 19.4 | 155 | 6.1 | 49.9 |
| CCCCC1=NC2(CCCC2)C(=O)N1Cc1ccc(-c2cc(N3CCCC(C)(C)C3)ccc2-c2nn[nH]n2)cc1 [Example 102] | 44.4 | 41.0 | 71.6 | 99.6 | 3.8 | 723 |
| CCCCC1=NC2(CCCC2)C(=O)N1Cc1ccc(-c2cc(N3CCC[C@H](C)C3)ccc2-c2nn[nH]n2)cc1 [Example 104] | 116 | 9.1 | 23.4 | 346 |  | > 100000 |
| CCCCC1=NC2(CCCC2)C(=O)N1Cc1ccc(-c2cc(-n3ccc4ccccc43)ccc2-c2nn[nH]n2)cc1 [Example 105] | 16 | 31.0 | 58.0 | 28.9 |  | > 100000 |
| CCCCC1=NC2(CCCC2)C(=O)N1Cc1ccc(-c2cc(N3CCC[C@@H](C)C3)ccc2-c2nn[nH]n2)cc1 [Example 106] | 17.6 | 6.3 | 12.4 | 138 |  | > 100000 |
| CCCCC1=NC2(CCCC2)C(=O)N1Cc1ccc(-c2cc(N3CC(C)(C)c4ccccc43)ccc2-c2nn[nH]n2)cc1 [Example 107] | 26.7 | 24.6 | 54.3 | 226 |  | > 100000 |
| CCCCC1=NC2(CCCC2)C(=O)N1Cc1ccc(-c2cc(-n3ccc4ccc(F)cc43)ccc2-c2nn[nH]n2)cc1 [Example 109] | 19.6 | 17.4 | 59.9 | 73.1 |  | > 100000 |
| CCCCC1=NC2(CCCC2)C(=O)N1Cc1ccc(-c2cc(N3CCCC(F)(F)C3)ccc2-c2noc(=O)[nH]2)cc1 [Example 121, 3-(4′-((2-butyl-4-oxo-1,3-diazaspiro[4.4]non-1-en-3-yl)methyl)-5-(3,3-difluoropiperidin-1-yl)-[1,1′-biphenyl]-2-yl)-1,2,4-oxadiazol-5(4H)-one] | 302 | 47.4 | 98.0 | 431 | 7.2 | 368 |
| CCCCC1=NC2(CCCC2)C(=O)N1Cc1ccc(-c2cc(-c3ccsn3)ccc2-c2nn[nH]n2)cc1 [Example 123, 2-butyl-3-((5′-(isothiazol-3-yl)-2′-(2H-tetrazol-5-yl)-[1,1′-biphenyl]-4-yl)methyl)-1,3-diazaspiro[4.4]non-1-en-4-one] | 9.7 | 4.9 | 20.6 | 65.3 |  | > 100000 |
| CCCCC1=NC2(CCCC2)C(=O)N1Cc1ccc(-c2cc(-c3ccc(C(=O)NC)cc3)ccc2-c2nn[nH]n2)cc1 [Example 124] | 64.9 | 28.1 | 32.6 | 138 |  | > 100000 |
| CCCCC1=NC2(CCCC2)C(=O)N1Cc1ccc(-c2cc(-c3cccnc3)ccc2-c2nn[nH]n2)cc1 [Example 125] | 45.3 | 16.6 | 15.1 | 300 |  | > 100000 |
| CCCCC1=NC2(CCCC2)C(=O)N1Cc1ccc(-c2cc(-c3ccc(CO)cc3)ccc2-c2nn[nH]n2)cc1 [Example 126] | 5.3 | 17.3 | 65.1 | 47.1 |  | > 100000 |
| CCCCC1=NC2(CCCC2)C(=O)N1Cc1ccc(-c2cc(-c3ccccc3CO)ccc2-c2nn[nH]n2)cc1 [Example 128] | 25.7 | 14.5 | 11.0 | 133 |  | > 100000 |
| CCCCC1=NC2(CCCC2)C(=O)N1Cc1ccc(-c2cc(-c3ccsc3)ccc2-c2nn[nH]n2)cc1 [Example 130] | 21.9 | 31.2 | 80.0 | 26.1 | 5.9 | 108 |
| CCCCC1=NC2(CCCC2)C(=O)N1Cc1ccc(-c2cc(-c3cccs3)ccc2-c2nn[nH]n2)cc1 [Example 131] | 13.7 | 19.1 | 42.5 | 49 |  | > 100000 |
| CCCCC1=NC2(CCCC2)C(=O)N1Cc1ccc(-c2cc(-c3ccc(OC(F)(F)F)cc3)ccc2-c2nn[nH]n2)cc1 [Example 134] | 73.5 | 40.3 | 77.0 | 158 | 4.0 | 102 |
| CCCCC1=NC2(CCCC2)C(=O)N1Cc1ccc(-c2cc(-c3cccc(F)c3F)ccc2-c2nn[nH]n2)cc1 [Example 135] | 13.7 | 38.6 | 94.8 | 28.7 |  | > 100000 |
| CCCCC1=NC2(CCCC2)C(=O)N1Cc1ccc(-c2cc(-c3ccc(OC(F)F)cn3)ccc2-c2nn[nH]n2)cc1 [Example 136] | 4.9 | 43.2 | 94.2 | 9.9 | 18.1 | 14.4 |
| CCCCC1=NC2(CCCC2)C(=O)N1Cc1ccc(-c2cc(-c3cscn3)ccc2-c2nn[nH]n2)cc1 [Example 137] | > 100000 |  | 12.2 | 35.3 |  | > 100000 |
| CCCCC1=NC2(CCCC2)C(=O)N1Cc1ccc(-c2cc(-c3cccc(C(F)(F)F)n3)ccc2-c2nn[nH]n2)cc1 [Example 142] | 27.5 | 22.7 | 82.9 | 59.2 | 4.8 | 140 |
| CCCCC1=NC2(CCCC2)C(=O)N1Cc1ccc(-c2cc(-c3ccccc3)ccc2-c2noc(=O)[nH]2)cc1 [Example 143, 3-(4″-((2-butyl-4-oxo-1,3-diazaspiro[4.4]non-1-en-3-yl)methyl)-[1,1′:3′,1″-terphenyl]-4′-yl)-1,2,4-oxadiazol-5(4H)-one] | 8.4 | 47.4 | 94.6 | 8.2 | 5.2 | 18.3 |
| CCCCC1=NC2(CCCC2)C(=O)N1Cc1ccc(-c2cc(-c3cccc(F)c3F)ccc2-c2noc(=O)[nH]2)cc1 [Example 144, 3-(4″-((2-butyl-4-oxo-1,3-diazaspiro[4.4]non-1-en-3-yl)methyl)-2,3-difluoro-[1,1′:3′,1″-terphenyl]-4′-yl)-1,2,4-oxadiazol-5(4H)-one] | 12.3 | 33.3 | 104.0 | 26.8 |  | > 100000 |
| CCCCC1=NC2(CCCC2)C(=O)N1Cc1ccc(-c2cc(-c3ccccc3)ccc2C(=O)O)cc1 [Example 145, 4″-((2-butyl-4-oxo-1,3-diazaspiro[4.4]non-1-en-3-yl)methyl)-[1,1′:3′,1″-terphenyl]-4′-carboxylic acid] | 27.3 | 36.3 | 81.5 | 64.4 | 3.1 | 57.1 |

— patent publication US12037324B2, “Biarylmethyl heterocycles” (Université de Montréal, priority 2016, dated 2024)
